Reference: BindingDB's records for doi:10.1021/acschembio.7b00041 (Bc Cancer Agency, 2017)

Tests used:
Assay in all cases: ATPase enzyme assay
[1] = molecular target: U5 small nuclear ribonucleoprotein 200 kDa helicase (Homo sapiens, UniProt O75643)
Experimental: (§1) Inhibitory activity was assessed under the following conditions: 350 uM ATP/1.5 ug mL−1 RNA indicated by black; 35 uM ATP/1.5 ug mL−1 RNA indicated by red; 3.5 uM ATP/1.5 ug mL−1 RNA indicated by blue; 35 uM ATP/60 ug mL−1 RNA indicated by green (n = 4, mean +/- standard deviation).

[2] = molecular target: Eukaryotic initiation factor 4A-II (Homo sapiens, UniProt Q14240)
Eukaryotic initiation factor 4A-II, sequence (Q14240 whole entry): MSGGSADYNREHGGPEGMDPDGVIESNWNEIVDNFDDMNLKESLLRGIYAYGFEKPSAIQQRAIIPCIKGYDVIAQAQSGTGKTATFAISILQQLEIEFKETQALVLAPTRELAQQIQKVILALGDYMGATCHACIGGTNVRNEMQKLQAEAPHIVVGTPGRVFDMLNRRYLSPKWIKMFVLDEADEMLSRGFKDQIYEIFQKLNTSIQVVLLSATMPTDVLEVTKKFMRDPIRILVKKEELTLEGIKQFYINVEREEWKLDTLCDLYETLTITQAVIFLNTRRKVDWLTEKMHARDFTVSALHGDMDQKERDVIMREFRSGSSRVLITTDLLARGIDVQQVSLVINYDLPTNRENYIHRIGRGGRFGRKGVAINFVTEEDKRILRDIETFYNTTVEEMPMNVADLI
Experimental: as §1

[3] = molecular target: Eukaryotic initiation factor 4A-III (Homo sapiens, UniProt P38919)
Eukaryotic initiation factor 4A-III, sequence (P38919 whole entry): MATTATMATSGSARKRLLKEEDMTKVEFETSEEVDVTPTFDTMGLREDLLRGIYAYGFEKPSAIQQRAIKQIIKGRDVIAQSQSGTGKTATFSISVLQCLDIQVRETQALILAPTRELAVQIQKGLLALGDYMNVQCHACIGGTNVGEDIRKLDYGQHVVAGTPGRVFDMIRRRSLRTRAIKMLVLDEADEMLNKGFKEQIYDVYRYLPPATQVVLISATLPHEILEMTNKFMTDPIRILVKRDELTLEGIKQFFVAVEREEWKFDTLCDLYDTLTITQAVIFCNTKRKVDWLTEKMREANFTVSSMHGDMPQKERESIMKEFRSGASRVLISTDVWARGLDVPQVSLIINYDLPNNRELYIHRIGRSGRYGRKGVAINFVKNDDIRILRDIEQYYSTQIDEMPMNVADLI
Experimental: as §1

[4] = molecular target: T1, ATP-dependent RNA helicase DHX29 (Homo sapiens, UniProt Q7Z478)
T1 sequence (Q7Z478 whole entry): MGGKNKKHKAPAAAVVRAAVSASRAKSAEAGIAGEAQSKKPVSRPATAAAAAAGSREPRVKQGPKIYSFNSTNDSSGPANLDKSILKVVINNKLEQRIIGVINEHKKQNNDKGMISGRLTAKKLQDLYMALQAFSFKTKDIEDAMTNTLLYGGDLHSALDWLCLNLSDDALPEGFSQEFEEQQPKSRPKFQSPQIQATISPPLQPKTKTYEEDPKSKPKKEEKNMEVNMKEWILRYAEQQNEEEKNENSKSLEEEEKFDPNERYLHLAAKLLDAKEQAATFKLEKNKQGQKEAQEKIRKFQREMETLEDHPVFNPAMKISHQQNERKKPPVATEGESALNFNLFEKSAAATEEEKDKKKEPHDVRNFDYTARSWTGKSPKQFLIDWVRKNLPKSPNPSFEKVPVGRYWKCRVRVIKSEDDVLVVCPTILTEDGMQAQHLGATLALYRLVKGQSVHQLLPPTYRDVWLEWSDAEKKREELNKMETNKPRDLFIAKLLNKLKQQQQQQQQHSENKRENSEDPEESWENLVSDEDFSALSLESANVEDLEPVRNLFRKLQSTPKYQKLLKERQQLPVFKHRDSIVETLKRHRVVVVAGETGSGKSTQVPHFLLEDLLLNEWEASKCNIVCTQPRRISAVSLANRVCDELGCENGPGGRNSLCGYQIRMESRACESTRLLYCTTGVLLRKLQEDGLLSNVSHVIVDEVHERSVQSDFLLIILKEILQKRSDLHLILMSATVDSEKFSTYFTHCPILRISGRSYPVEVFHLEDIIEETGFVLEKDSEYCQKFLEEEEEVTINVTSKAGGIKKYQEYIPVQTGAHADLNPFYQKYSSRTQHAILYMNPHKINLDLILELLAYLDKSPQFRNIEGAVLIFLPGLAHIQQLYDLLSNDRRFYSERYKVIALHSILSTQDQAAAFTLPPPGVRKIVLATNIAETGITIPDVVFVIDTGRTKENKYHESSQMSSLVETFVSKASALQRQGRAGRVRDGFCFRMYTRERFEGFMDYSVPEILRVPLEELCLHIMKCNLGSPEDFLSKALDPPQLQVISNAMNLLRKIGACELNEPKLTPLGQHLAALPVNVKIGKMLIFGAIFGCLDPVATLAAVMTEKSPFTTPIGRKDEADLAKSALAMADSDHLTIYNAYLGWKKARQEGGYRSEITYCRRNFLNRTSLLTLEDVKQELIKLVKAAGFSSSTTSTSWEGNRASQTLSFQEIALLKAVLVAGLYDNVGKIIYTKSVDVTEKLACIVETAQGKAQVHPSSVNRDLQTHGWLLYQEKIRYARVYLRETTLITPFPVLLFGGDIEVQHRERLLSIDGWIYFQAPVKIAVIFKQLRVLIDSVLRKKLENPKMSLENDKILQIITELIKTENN
Experimental: as §1

[5] = molecular target: Eukaryotic initiation factor 4A-I (Homo sapiens, UniProt P60842)
Eukaryotic initiation factor 4A-I, sequence (P60842 whole entry): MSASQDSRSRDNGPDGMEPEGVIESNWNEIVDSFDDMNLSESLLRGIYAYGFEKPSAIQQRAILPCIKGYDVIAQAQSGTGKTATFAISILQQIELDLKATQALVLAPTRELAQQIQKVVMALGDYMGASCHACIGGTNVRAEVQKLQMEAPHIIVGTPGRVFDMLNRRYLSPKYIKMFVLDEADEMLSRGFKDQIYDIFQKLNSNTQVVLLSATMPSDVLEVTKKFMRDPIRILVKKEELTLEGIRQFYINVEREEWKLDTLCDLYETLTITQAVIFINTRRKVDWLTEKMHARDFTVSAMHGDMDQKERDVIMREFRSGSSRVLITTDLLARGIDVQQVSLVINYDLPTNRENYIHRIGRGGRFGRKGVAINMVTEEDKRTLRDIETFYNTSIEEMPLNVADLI
Experimental: as §1

U5 small nuclear ribonucleoprotein 200 kDa helicase, sequence (O75643 whole entry): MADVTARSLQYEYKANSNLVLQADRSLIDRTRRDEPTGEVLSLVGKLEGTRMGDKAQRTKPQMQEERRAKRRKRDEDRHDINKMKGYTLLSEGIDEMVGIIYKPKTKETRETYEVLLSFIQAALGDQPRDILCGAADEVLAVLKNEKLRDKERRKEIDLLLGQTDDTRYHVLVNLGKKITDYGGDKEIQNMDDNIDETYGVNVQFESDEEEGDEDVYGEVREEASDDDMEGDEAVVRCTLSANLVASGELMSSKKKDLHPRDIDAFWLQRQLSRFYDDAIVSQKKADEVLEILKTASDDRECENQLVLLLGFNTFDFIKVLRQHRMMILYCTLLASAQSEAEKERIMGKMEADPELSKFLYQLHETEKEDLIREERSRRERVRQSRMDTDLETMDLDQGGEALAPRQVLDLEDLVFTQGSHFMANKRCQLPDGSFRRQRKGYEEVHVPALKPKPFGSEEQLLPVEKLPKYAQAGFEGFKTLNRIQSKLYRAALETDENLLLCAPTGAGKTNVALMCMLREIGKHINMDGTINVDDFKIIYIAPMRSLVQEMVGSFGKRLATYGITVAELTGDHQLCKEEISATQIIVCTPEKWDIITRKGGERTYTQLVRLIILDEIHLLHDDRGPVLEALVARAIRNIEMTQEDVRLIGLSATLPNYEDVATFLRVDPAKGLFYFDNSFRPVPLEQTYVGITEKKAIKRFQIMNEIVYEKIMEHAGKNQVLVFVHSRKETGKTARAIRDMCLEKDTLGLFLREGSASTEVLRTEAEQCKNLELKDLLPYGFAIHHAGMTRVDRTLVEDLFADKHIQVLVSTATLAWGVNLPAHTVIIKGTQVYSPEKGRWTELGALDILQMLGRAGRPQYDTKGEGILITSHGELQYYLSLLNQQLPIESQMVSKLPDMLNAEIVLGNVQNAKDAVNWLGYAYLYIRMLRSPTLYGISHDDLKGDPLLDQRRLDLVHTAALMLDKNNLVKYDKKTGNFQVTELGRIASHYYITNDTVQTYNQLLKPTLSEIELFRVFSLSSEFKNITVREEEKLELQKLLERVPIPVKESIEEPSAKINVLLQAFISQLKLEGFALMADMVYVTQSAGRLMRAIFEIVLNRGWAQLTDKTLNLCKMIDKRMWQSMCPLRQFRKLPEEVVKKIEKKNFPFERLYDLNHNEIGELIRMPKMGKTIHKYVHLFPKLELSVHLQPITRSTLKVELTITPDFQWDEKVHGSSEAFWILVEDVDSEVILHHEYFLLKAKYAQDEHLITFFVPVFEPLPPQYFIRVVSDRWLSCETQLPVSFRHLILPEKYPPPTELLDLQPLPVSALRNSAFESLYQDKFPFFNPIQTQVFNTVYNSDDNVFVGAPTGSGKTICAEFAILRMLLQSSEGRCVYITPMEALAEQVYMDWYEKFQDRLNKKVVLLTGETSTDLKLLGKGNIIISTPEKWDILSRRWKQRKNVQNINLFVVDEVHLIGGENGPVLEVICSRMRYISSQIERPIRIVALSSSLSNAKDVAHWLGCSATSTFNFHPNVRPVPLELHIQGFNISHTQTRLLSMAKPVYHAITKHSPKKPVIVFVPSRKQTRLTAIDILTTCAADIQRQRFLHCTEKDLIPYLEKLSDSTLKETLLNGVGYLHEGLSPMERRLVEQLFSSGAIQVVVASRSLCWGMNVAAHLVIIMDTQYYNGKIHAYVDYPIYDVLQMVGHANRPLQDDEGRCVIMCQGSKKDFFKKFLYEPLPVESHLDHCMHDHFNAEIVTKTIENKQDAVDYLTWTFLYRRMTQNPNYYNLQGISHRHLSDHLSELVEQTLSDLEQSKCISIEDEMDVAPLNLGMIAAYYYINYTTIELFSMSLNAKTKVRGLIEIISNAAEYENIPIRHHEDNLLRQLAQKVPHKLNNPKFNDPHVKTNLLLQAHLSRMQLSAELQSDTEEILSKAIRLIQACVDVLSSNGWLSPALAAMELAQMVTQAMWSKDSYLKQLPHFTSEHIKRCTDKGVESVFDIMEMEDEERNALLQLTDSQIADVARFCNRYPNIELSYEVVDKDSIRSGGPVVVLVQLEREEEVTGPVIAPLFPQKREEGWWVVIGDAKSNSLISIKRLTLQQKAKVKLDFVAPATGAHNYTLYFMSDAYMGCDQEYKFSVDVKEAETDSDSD

In the case of `O=C(c1cnn2cc(Br)ccc12)N1CCN(C(=O)c2ccc(Br)cc2)[C@@H](c2ccc(Cl)cc2)C1` [eIF4A3 inhibitor, 2], the IC50 [1] is reported as > 100 µM, the IC50 [2] is reported as > 100 µM and the IC50 [3] is reported as 0.11 µM. For the same compound, the IC50 [4] was > 100 µM and the IC50 [5] was > 100 µM.
